Where a name gives a salt, the structure may show the parent alone.
Tests used:
[1] = test system: Xanthium; experiment: Post-emergence test/greenhouse; type: in vivo; conditions: greenhouse, application rate 15 gai/ha, rated after three weeks, 0%=no effect, 100%=total destruction
In short: (§1)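 Greenhouse foliar application to 5-15 cm plants at the chosen rate per hectare, 1000 l water/ha. Effect was rated as % damage after three weeks, with untreated plants as 0%.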

[2] = test system: Lolium; experiment: Post-emergence test/greenhouse; type: in vivo; conditions: greenhouse, application rate 15 gai/ha, rated after three weeks, 0%=no effect, 100%=total destruction
In short: as §1

[3] = test system: Bromus; experiment: Post-emergence test/greenhouse; type: in vivo; conditions: greenhouse, application rate 15 gai/ha, rated after three weeks, 0%=no effect, 100%=total destruction
In short: as §1

[4] = test system: Setaria; experiment: Post-emergence test/greenhouse; type: in vivo; conditions: greenhouse, application rate 15 gai/ha, rated after three weeks, 0%=no effect, 100%=total destruction
In short: as §1

[5] = test system: maize; experiment: Post-emergence test/greenhouse; type: in vivo; conditions: greenhouse, application rate 15 gai/ha, rated after three weeks, 0%=no effect, 100%=total destruction
In short: as §1

[6] = test system: Polygonum; experiment: Post-emergence test/greenhouse; type: in vivo; conditions: greenhouse, application rate 15 gai/ha, rated after three weeks, 0%=no effect, 100%=total destruction
In short: as §1

[7] = test system: Echinochloa; experiment: Post-emergence test/greenhouse; type: in vivo; conditions: greenhouse, application rate 15 gai/ha, rated after three weeks, 0%=no effect, 100%=total destruction
In short: as §1

[8] = test system: rape; experiment: Post-emergence test/greenhouse; type: in vivo; conditions: greenhouse, application rate 15 gai/ha, rated after three weeks, 0%=no effect, 100%=total destruction
In short: as §1

[9] = test system: Chenopodium; experiment: Post-emergence test/greenhouse; type: in vivo; conditions: greenhouse, application rate 15 gai/ha, rated after three weeks, 0%=no effect, 100%=total destruction
In short: as §1

[10] = test system: Alopecurus; experiment: Post-emergence test/greenhouse; type: in vivo; conditions: greenhouse, application rate 15 gai/ha, rated after three weeks, 0%=no effect, 100%=total destruction
In short: as §1

[11] = test system: Avena fatua; experiment: Post-emergence test/greenhouse; type: in vivo; conditions: greenhouse, application rate 15 gai/ha, rated after three weeks, 0%=no effect, 100%=total destruction
In short: as §1

[12] = test system: Datura; experiment: Post-emergence test/greenhouse; type: in vivo; conditions: greenhouse, application rate 15 gai/ha, rated after three weeks, 0%=no effect, 100%=total destruction
In short: as §1

[13] = test system: Viola; experiment: Post-emergence test/greenhouse; type: in vivo; conditions: greenhouse, application rate 15 gai/ha, rated after three weeks, 0%=no effect, 100%=total destruction
In short: as §1

[14] = test system: wheat; experiment: Post-emergence test/greenhouse; type: in vivo; conditions: greenhouse, application rate 15 gai/ha, rated after three weeks, 0%=no effect, 100%=total destruction
In short: as §1

[15] = test system: Digitaria; experiment: Post-emergence test/greenhouse; type: in vivo; conditions: greenhouse, application rate 15 gai/ha, rated after three weeks, 0%=no effect, 100%=total destruction
In short: as §1

[16] = test system: Xanthium; experiment: Pre-emergence test/greenhouse; type: in vivo; conditions: Xanthium, 504 h, greenhouse, application rate 15 gai/ha, rated after three weeks, 0%=no effect, 100%=total destruction, read-out: degree of damage to the plants, Xanthium
In short: (§2)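 Greenhouse pre-emergence format: sowing in normal soil, then spraying of an acetone-based emulsified preparation onto the soil one day later (1000 L/ha water). Effect assessed visually after three weeks as % damage.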

[17] = test system: Lolium; experiment: Pre-emergence test/greenhouse; type: in vivo; conditions: Lolium, 504 h, greenhouse, application rate 15 gai/ha, rated after three weeks, 0%=no effect, 100%=total destruction, read-out: degree of damage to the plants, Lolium
In short: as §2

[18] = test system: Bromus; experiment: Pre-emergence test/greenhouse; type: in vivo; conditions: greenhouse, application rate 15 gai/ha, rated after three weeks, 0%=no effect, 100%=total destruction
In short: as §2

[19] = test system: Setaria; experiment: Pre-emergence test/greenhouse; type: in vivo; conditions: greenhouse, application rate 15 gai/ha, rated after three weeks, 0%=no effect, 100%=total destruction
In short: as §2

[20] = test system: maize; experiment: Pre-emergence test/greenhouse; type: in vivo; conditions: Zea mays, 504 h, greenhouse, application rate 15 gai/ha, rated after three weeks, 0%=no effect, 100%=total destruction, read-out: degree of damage to the plants, maize
In short: as §2

[21] = test system: Polygonum; experiment: Pre-emergence test/greenhouse; type: in vivo; conditions: greenhouse, application rate 15 gai/ha, rated after three weeks, 0%=no effect, 100%=total destruction
In short: as §2

[22] = test system: Solanum; experiment: Pre-emergence test/greenhouse; type: in vivo; conditions: greenhouse, application rate 15 gai/ha, rated after three weeks, 0%=no effect, 100%=total destruction
In short: as §2

[23] = test system: soybeans; experiment: Pre-emergence test/greenhouse; type: in vivo; conditions: greenhouse, application rate 15 gai/ha, rated after three weeks, 0%=no effect, 100%=total destruction
In short: as §2

[24] = test system: Chenopodium; experiment: Pre-emergence test/greenhouse; type: in vivo; conditions: greenhouse, application rate 15 gai/ha, rated after three weeks, 0%=no effect, 100%=total destruction
In short: as §2

[25] = test system: Alopecurus; experiment: Pre-emergence test/greenhouse; type: in vivo; conditions: greenhouse, application rate 15 gai/ha, rated after three weeks, 0%=no effect, 100%=total destruction
In short: as §2

[26] = test system: Galium; experiment: Pre-emergence test/greenhouse; type: in vivo; conditions: greenhouse, application rate 15 gai/ha, rated after three weeks, 0%=no effect, 100%=total destruction
In short: as §2

[27] = test system: Avena fatua; experiment: Pre-emergence test/greenhouse; type: in vivo; conditions: greenhouse, application rate 15 gai/ha, rated after three weeks, 0%=no effect, 100%=total destruction
In short: as §2

[28] = test system: Stellaria; experiment: Pre-emergence test/greenhouse; type: in vivo; conditions: Stellaria, 504 h, greenhouse, application rate 15 gai/ha, rated after three weeks, 0%=no effect, 100%=total destruction, read-out: degree of damage to the plants, Stellaria
In short: as §2

[29] = test system: wheat; experiment: Pre-emergence test/greenhouse; type: in vivo; conditions: Triticum aestivum, 504 h, greenhouse, application rate 15 gai/ha, rated after three weeks, 0%=no effect, 100%=total destruction, read-out: degree of damage to the plants, wheat
In short: as §2

[30] = test system: Matricaria; experiment: Pre-emergence test/greenhouse; type: in vivo; conditions: Matricaria, 504 h, greenhouse, application rate 15 gai/ha, rated after three weeks, 0%=no effect, 100%=total destruction, read-out: degree of damage to the plants, Matricaria
In short: as §2

[31] = test system: Digitaria; experiment: Pre-emergence test/greenhouse; type: in vivo; conditions: greenhouse, application rate 15 gai/ha, rated after three weeks, 0%=no effect, 100%=total destruction
In short: as §2

Which melting point does the source give for `CCOC(=O)c1csc(C)c1S(=O)(=O)NC(=O)n1nc(OC)n(C)c1=O` (as salt: sodium) [Example 1, ethyl 4-[[[(3-methoxy-4-methyl-5-oxo-1H-1,2,4-triazol-1-yl)carbonyl]amino]sulfonyl]-5-methyl-3-thiophenecarboxylate] here?
Its melting point is 220 °C.

Which “degree of damage to the plants, Xanthium” value [1] does the source give for `CCCOc1nn(C(=O)NS(=O)(=O)c2c(C(=O)OC)csc2C)c(=O)n1C` [(A), methyl 4-[[[(4,5-dihydro-4-methyl-5-oxo-3-n-propoxy-1H-1,2,4-triazol-1-yl)carbonyl]-amino]sulfonyl]-5-methyl-3-thiophenecarboxylate, reference compound] here?
The value was 70%.

And the “degree of damage to the plants, Lolium” value [2]?
Its value is 30%.

What about the “degree of damage to the plants, Bromus” value [3] of the same compound?
Its value is 50%.

And the “degree of damage to the plants, Setaria” value [4]?
Its value is 30%.

What about the “degree of damage to the plants, maize” value [5] of the same compound?
Its value is 30%.

And the “degree of damage to the plants, Polygonum” value [6]?
Its value is 50%.

And the “degree of damage to the plants, Echinochloa” value [7]?
The value was 60%.

And the “degree of damage to the plants, rape” value [8]?
Its value is 95%.

And the “degree of damage to the plants, Chenopodium” value [9]?
Its value is 80%.

What about the “degree of damage to the plants, Alopecurus” value [10] of the same compound?
Its value is 70%.

What about the “degree of damage to the plants, Avena fatua” value [11] of the same compound?
Its value is 30%.

What about the “degree of damage to the plants, Datura” value [12] of the same compound?
The value was 50%.

And the “degree of damage to the plants, Viola” value [13]?
Its value is 30%.

And the “degree of damage to the plants, wheat” value [14]?
The value was 0%.

What about the “degree of damage to the plants, Digitaria” value [15] of the same compound?
The value was 10%.

And the pest or weed control at 15 g/ha [16]?
The pest or weed control at 15 g/ha was 0%.

And the pest or weed control at 15 g/ha [17]?
Its pest or weed control at 15 g/ha is 0%.

What about the “degree of damage to the plants, Bromus” value [18] of the same compound?
Its value is 60%.

And the “degree of damage to the plants, Setaria” value [19]?
The value was 0%.

What about the plant injury at 15 g/ha [20] of the same compound?
The plant injury at 15 g/ha was 0%.

And the “degree of damage to the plants, Polygonum” value [21]?
The value was 0%.

What about the “degree of damage to the plants, Solanum” value [22] of the same compound?
Its value is 80%.

What about the “degree of damage to the plants, soybeans” value [23] of the same compound?
Its value is 0%.

What about the “degree of damage to the plants, Chenopodium” value [24] of the same compound?
Its value is 50%.

And the “degree of damage to the plants, Alopecurus” value [25]?
The value was 60%.

And the “degree of damage to the plants, Galium” value [26]?
Its value is 10%.

And the “degree of damage to the plants, Avena fatua” value [27]?
Its value is 0%.

And the pest or weed control at 15 g/ha [28]?
Its pest or weed control at 15 g/ha is 80%.

What about the plant injury at 15 g/ha [29] of the same compound?
The plant injury at 15 g/ha was 0%.

And the pest or weed control at 15 g/ha [30]?
Its pest or weed control at 15 g/ha is 50%.

What about the “degree of damage to the plants, Digitaria” value [31] of the same compound?
Its value is 0%.
